Data taken from article PMC4869123 (Scientific Reports, 2016).
Where two headings read alike, the source gives them in different places. *1 amine or outer side, *2 acyl side, *3 side chain or, on linkers, in order; H or OH if unused. Where a SMILES comes first, the peptide text is derived from it. Bridges are numbered along the chain shown (N, C = ends). Roman numbers before positions name the chains, in order. Where no end group is shown, it is not given here. [ ]: non-standard residue; d: D form. The star is where a group is joined. X1 = O=C(CCOCCOCCOCCOCCOCCOCCOCCOCCOCCOCCOCCOCCOCCOCCOCCOCCOCCOCCOCCOCCOCCC(=O)[*:2])[*:1]; X2 = CCNC(=O)CCOCCOCCOCCOCCOCCOCCOCCOCCOCCOCCOCCOCCOCCOCCOCCOCCOCCOCCOCCOCCOCCC(=O)*; CO(CH2CH2O)5CH2CH2CO = O=C(CCOCCOCCOCCOCCOCCC(=O)[*:2])[*:1]; Lys(Me2) = CN(C)CCCC[C@H](N)C(=O)O

Legend:
human IL-17A [1] = molecular target: T1, human IL-17A (Homo sapiens, UniProt Q16552); assay: BJ human fibroblast cell assay, IL-17A stimulated GRO-α production; assay type: cell-based; conditions: BJ human fibroblast cells, 1 ng/ml human IL-17A
T1 construct: host or cells: added to BJ human fibroblasts (ATCC CRL2522)
Text: For inhibitor screen, human BJ fibroblast cells (ATCC CRL2522) (American Type Culture Collection, VA) were used. For mouse cell based assay MLE-12 mouse epithelial cells (ATCC CRL2110) were used. Both cell lines were maintained in ATCC recommended media.

murine IL-17A = molecular target: T2, murine IL-17A (Mus musculus, UniProt Q62386); assay: Murine functional cell assay, MLE-12 mouse epithelial cells, KC production; assay type: cell-based
T2 construct: host or cells: added to MLE-12 mouse epithelial cells (ATCC CRL2110)
T2 sequence (Q62386 26-158): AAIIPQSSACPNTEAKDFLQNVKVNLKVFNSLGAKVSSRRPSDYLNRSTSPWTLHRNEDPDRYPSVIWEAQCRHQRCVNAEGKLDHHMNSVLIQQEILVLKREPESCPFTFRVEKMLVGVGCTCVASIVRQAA
Experimental: […]. For inhibitor screen, human BJ fibroblast cells (ATCC CRL2522) (American Type Culture Collection, VA) were used. For mouse cell based assay MLE-12 mouse epithelial cells (ATCC CRL2110) were used. Both cell lines were maintained in ATCC recommended media. Cells were seeded at 5 × 10^3 cells/well into 96-well flat-bottom microtiter plates in which peptides that had been pre-diluted with cytokines (1 ng/mL for human IL-17A or 15 ng/mL for mouse IL-17A) in culture medium. Cells were incubated at 37 °C for 16–24 hrs, and supernatants were collected and analyzed by ELISA for either human CXCL1/GRO-α (R&D Systems DY275) or mouse CXCL1/KC (R&D Systems DY453).
Figure S4. Inhibition of IL-17A induced murine keratinocyte-derived cytokine (KC). MLE-12 mouse epithelial cellswere cultured in the presence of IL-17A […]
which time cell culture were removed for analysis of KCproduction.Data are mean and error bars of +/-standard deviation of duplicatedmeasurements […]
(1 picture or pasted object on this page, not shown here)

human IL-17A [2] = molecular target: T3, human IL-17A (human, UniProt Q16552 24-155); assay: cell-based or functional assay
[3] = molecular target: T4, biotinylated recombinant human IL-17A (rhIL-17, R&D Systems #317-ILB) (human, UniProt Q16552 24-155, biotinylated); conditions: both partners purified
T4 construct: IL-17A, human, recombinant; also called Biotinylated IL-17A; source: bought: R&D Systems

human IL-17A [4] = molecular target: T3, human IL-17A
[5] = molecular target: T5, biotinylated mouse IL-17A (mouse, UniProt Q62386 26-158, biotinylated); assay: cell-based or functional assay
T5 sequence (looked up): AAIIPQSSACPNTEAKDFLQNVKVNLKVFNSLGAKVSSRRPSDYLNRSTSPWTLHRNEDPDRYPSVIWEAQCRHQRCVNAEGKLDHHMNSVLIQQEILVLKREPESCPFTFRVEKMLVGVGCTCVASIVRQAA

[6] = molecular target: T5, biotinylated mouse IL-17A; assay: SPR; Biacore 3000; biotinylated protein captured on a streptavidin chip (about 2500 to 3500 RUs); peptide injected at 50 μl/min, 180 s association, at least 600 s dissociation; 10 mM HEPES pH 7.4, 150 mM NaCl, 0.01% P20, 3% DMSO; single site model, global fit; conditions: both partners purified

T3 sequence (Q16552 24-155): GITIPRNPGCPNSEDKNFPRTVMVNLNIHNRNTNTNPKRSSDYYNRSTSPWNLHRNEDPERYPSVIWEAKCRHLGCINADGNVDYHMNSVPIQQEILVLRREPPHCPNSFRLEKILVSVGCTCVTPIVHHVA
T1 sequence (Q16552 24-155): as above
T4 sequence (Q16552 24-155): as above

CC[C@H](C)[C@H](NC(C)=O)C(=O)N[C@H](C(=O)N[C@H](C(=O)N[C@H](C(=O)N[C@H](C(=O)N1CCC[C@H]1C(=O)N[C@@H](C)C(=O)N[C@@H](CC(=O)O)C(=O)N[C@@H](CC(C)C)C(=O)N[C@@H](Cc1c[nH]c2ccccc12)C(=O)N[C@@H](CC(=O)O)C(=O)N[C@@H](Cc1c[nH]c2ccccc12)C(=O)N[C@H](C(=O)N[C@@H](CC(N)=O)C(=O)N[C@@H](CCCCN(C)C)C(=O)N[C@@H](CCCCNC(=O)CCOCCOCCOCCOCCOCCC(=O)NCCCC[C@H](NC(=O)[C@H](CCCCN(C)C)NC(=O)[C@H](CC(N)=O)NC(=O)[C@@H](NC(=O)[C@H](Cc1c[nH]c2ccccc12)NC(=O)[C@H](CC(=O)O)NC(=O)[C@H](Cc1c[nH]c2ccccc12)NC(=O)[C@H](CC(C)C)NC(=O)[C@H](CC(=O)O)NC(=O)[C@H](C)NC(=O)[C@@H]1CCCN1C(=O)[C@@H](NC(=O)[C@@H](NC(=O)[C@@H](NC(=O)[C@@H](NC(=O)[C@@H](NC(C)=O)[C@@H](C)CC)[C@@H](C)O)C(C)C)[C@@H](C)O)[C@@H](C)CC)[C@@H](C)CC)C(N)=O)C(N)=O)[C@@H](C)CC)[C@@H](C)CC)[C@@H](C)O)C(C)C)[C@@H](C)O [Compound 46] (I: Ac-ITVTIPADLWDWIN[Lys(Me2)]K-NH2 / II: Ac-ITVTIPADLWDWIN[Lys(Me2)]K-NH2; linker I:16-II:16 via CO(CH2CH2O)5CH2CH2CO)
IC50 (human IL-17A [1]): 582 nM

CC[C@H](C)[C@H](NC(C)=O)C(=O)N[C@H](C(=O)N[C@H](C(=O)N[C@H](C(=O)N[C@H](C(=O)N1CCC[C@H]1C(=O)N[C@@H](C)C(=O)N[C@@H](CC(=O)O)C(=O)N[C@@H](CC(C)C)C(=O)N[C@@H](Cc1c[nH]c2ccccc12)C(=O)N[C@@H](CC(=O)O)C(=O)N[C@@H](Cc1c[nH]c2ccccc12)C(=O)N[C@H](C(=O)N[C@@H](CCCCNC(=O)CCOCCOCCOCCOCCOCCOCCOCCOCCOCCOCCOCCOCCOCCOCCOCCOCCOCCOCCOCCOCCOCCC(=O)NCCCC[C@H](NC(=O)[C@@H](NC(=O)[C@H](Cc1c[nH]c2ccccc12)NC(=O)[C@H](CC(=O)O)NC(=O)[C@H](Cc1c[nH]c2ccccc12)NC(=O)[C@H](CC(C)C)NC(=O)[C@H](CC(=O)O)NC(=O)[C@H](C)NC(=O)[C@@H]1CCCN1C(=O)[C@@H](NC(=O)[C@@H](NC(=O)[C@@H](NC(=O)[C@@H](NC(=O)[C@@H](NC(C)=O)[C@@H](C)CC)[C@@H](C)O)C(C)C)[C@@H](C)O)[C@@H](C)CC)[C@@H](C)CC)C(=O)N[C@@H](CCCCN(C)C)C(N)=O)C(=O)N[C@@H](CCCCN(C)C)C(N)=O)[C@@H](C)CC)[C@@H](C)CC)[C@@H](C)O)C(C)C)[C@@H](C)O [Compound 45] (I: Ac-ITVTIPADLWDWIK[Lys(Me2)]-NH2 / II: Ac-ITVTIPADLWDWIK[Lys(Me2)]-NH2; linker I:14-II:14 via X1)
IC50 (murine IL-17A; MLE-12 cells, 15 ng/ml murine IL-17A, KC production, read-out: IC50, murine IL-17A): 41 nM | IC50 (human IL-17A [1]): 0.1 nM

CC[C@H](C)[C@H](NC(C)=O)C(=O)N[C@H](C(=O)N[C@H](C(=O)N[C@@H](CCCCNC(=O)CCOCCOCCOCCOCCOCCC(=O)NCCCC[C@H](NC(=O)[C@@H](NC(=O)[C@@H](NC(=O)[C@@H](NC(C)=O)[C@@H](C)CC)[C@@H](C)O)C(C)C)C(=O)N[C@H](C(=O)N1CCC[C@H]1C(=O)N[C@@H](C)C(=O)N[C@@H](CC(=O)O)C(=O)N[C@@H](CC(C)C)C(=O)N[C@@H](Cc1c[nH]c2ccccc12)C(=O)N[C@@H](CC(=O)O)C(=O)N[C@@H](Cc1c[nH]c2ccccc12)C(=O)N[C@H](C(=O)N[C@@H](CC(N)=O)C(=O)N[C@@H](CCCCN(C)C)C(N)=O)[C@@H](C)CC)[C@@H](C)CC)C(=O)N[C@H](C(=O)N1CCC[C@H]1C(=O)N[C@@H](C)C(=O)N[C@@H](CC(=O)O)C(=O)N[C@@H](CC(C)C)C(=O)N[C@@H](Cc1c[nH]c2ccccc12)C(=O)N[C@@H](CC(=O)O)C(=O)N[C@@H](Cc1c[nH]c2ccccc12)C(=O)N[C@H](C(=O)N[C@@H](CC(N)=O)C(=O)N[C@@H](CCCCN(C)C)C(N)=O)[C@@H](C)CC)[C@@H](C)CC)C(C)C)[C@@H](C)O [Compound 40] (I: Ac-ITVKIPADLWDWIN[Lys(Me2)]-NH2 / II: Ac-ITVKIPADLWDWIN[Lys(Me2)]-NH2; linker I:4-II:4 via CO(CH2CH2O)5CH2CH2CO)
IC50 (human IL-17A [1]): 3370 nM

CC[C@H](C)[C@H](NC(C)=O)C(=O)N[C@H](C(=O)N[C@H](C(=O)N[C@H](C(=O)N[C@H](C(=O)N1CCC[C@H]1C(=O)N[C@@H](C)C(=O)N[C@@H](CC(=O)O)C(=O)N[C@@H](CC(C)C)C(=O)N[C@@H](Cc1c[nH]c2ccccc12)C(=O)N[C@@H](CC(=O)O)C(=O)N[C@@H](Cc1c[nH]c2ccccc12)C(=O)N[C@H](C(=O)N[C@@H](CC(N)=O)C(=O)N[C@@H](CCCCN(C)C)C(=O)N[C@@H](CCCCNC(=O)CCOCCOCCOCCOCCOCCOCCOCCOCCOCCOCCOCCOCCOCCOCCOCCOCCOCCOCCOCCOCCOCCC(=O)NCCCC[C@H](NC(=O)[C@H](CCCCN(C)C)NC(=O)[C@H](CC(N)=O)NC(=O)[C@@H](NC(=O)[C@H](Cc1c[nH]c2ccccc12)NC(=O)[C@H](CC(=O)O)NC(=O)[C@H](Cc1c[nH]c2ccccc12)NC(=O)[C@H](CC(C)C)NC(=O)[C@H](CC(=O)O)NC(=O)[C@H](C)NC(=O)[C@@H]1CCCN1C(=O)[C@@H](NC(=O)[C@@H](NC(=O)[C@@H](NC(=O)[C@@H](NC(=O)[C@@H](NC(C)=O)[C@@H](C)CC)[C@@H](C)O)C(C)C)[C@@H](C)O)[C@@H](C)CC)[C@@H](C)CC)C(N)=O)C(N)=O)[C@@H](C)CC)[C@@H](C)CC)[C@@H](C)O)C(C)C)[C@@H](C)O [Compound 47] (I: Ac-ITVTIPADLWDWIN[Lys(Me2)]K-NH2 / II: Ac-ITVTIPADLWDWIN[Lys(Me2)]K-NH2; linker I:16-II:16 via X1)
IC50 (human IL-17A [1]): 16 nM

Ac-IHVTIPADLWDWINK-NH2 [Compound 30]
IC50 (murine IL-17A): > 1000 nM

CCNC(=O)CCOCCOCCOCCOCCOCCOCCOCCOCCOCCOCCOCCOCCOCCOCCOCCOCCOCCOCCOCCOCCOCCC(=O)NCCCC[C@H](NC(=O)[C@@H](NC(=O)[C@H](Cc1c[nH]c2ccccc12)NC(=O)[C@H](CC(=O)O)NC(=O)[C@H](Cc1c[nH]c2ccccc12)NC(=O)[C@H](CC(C)C)NC(=O)[C@H](CC(=O)O)NC(=O)[C@H](C)NC(=O)[C@@H]1CCCN1C(=O)[C@@H](NC(=O)[C@@H](NC(=O)[C@@H](NC(=O)[C@@H](NC(=O)[C@@H](NC(C)=O)[C@@H](C)CC)[C@@H](C)O)C(C)C)[C@@H](C)O)[C@@H](C)CC)[C@@H](C)CC)C(=O)N[C@@H](CCCCN(C)C)C(N)=O [Compound 48] (Ac-ITVTIPADLWDWIK(X2)[Lys(Me2)]-NH2)
IC50 (human IL-17A [1]): 21 nM

B1: peptide 1 (peptide)
peptide: Ac-IVVTMPADLWDWIKA
modifications: not fully specified (C-terminus)
notes: 15-mer linear peptide from phage display; made on Rink resin; a C-terminal amide is surmised; also called phage peptide 1; source: synthetic peptide
Cell IC50: inhibition of GRO-α production in BJ human fibroblast cells stimulated with 1 ng/ml IL-17A (human IL-17A [2]): 370 nM | IC50 [3]: 80 nM

B2: peptide 24 (peptide)
peptide: Ac-IVVTIPADLWDWIRA
modifications: not fully specified (C-terminus)
notes: analogue of peptide 2, I at position 5; made on Rink resin; a C-terminal amide is surmised; source: synthetic peptide
Cell IC50: inhibition of GRO-α production in BJ human fibroblast cells stimulated with 1 ng/ml IL-17A (human IL-17A [2]): 18 nM | IC50 [3]: 3 nM

Ac-IHVTIPADLWDWI (not fully specified (C-terminus)) [peptide 36]
Cell IC50: inhibition of IL-17A signaling in BJ human fibroblast cells stimulated with 1 ng/ml IL-17A (human IL-17A [4]): 183 nM

B3: high affinity IL-17A peptide antagonist (HAP) (peptide)
peptide: Ac-IHVTIPADLWDWINK
notes: 15-residue peptide that combines the key residues found by SAR; made on Rink resin; a C-terminal amide is surmised; also called 30; peptide 30; source: synthetic peptide
IC50 in a murine functional cell assay using 15 ng/ml murine IL-17A (inhibition of murine IL-17A signaling) [5]: > 1000 nM | Kd [6]: 30.1 ± 0.1 nM
